The target in series [1] is T1, human calcitonin receptor (hCTR) (Homo sapiens, UniProt P30988).
T1 construct: expressed in transfected cells
T1 sequence (P30988 25-474): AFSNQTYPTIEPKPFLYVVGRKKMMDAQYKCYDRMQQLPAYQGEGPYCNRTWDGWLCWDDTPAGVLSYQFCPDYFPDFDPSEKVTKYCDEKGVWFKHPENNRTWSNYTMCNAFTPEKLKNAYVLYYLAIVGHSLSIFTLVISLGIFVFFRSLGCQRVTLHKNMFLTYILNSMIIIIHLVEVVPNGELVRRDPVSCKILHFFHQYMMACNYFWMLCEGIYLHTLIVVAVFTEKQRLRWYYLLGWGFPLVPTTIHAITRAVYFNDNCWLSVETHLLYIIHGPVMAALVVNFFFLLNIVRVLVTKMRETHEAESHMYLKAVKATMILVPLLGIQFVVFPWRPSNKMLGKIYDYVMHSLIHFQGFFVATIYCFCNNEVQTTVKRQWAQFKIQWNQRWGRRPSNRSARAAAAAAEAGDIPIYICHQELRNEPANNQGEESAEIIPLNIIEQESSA
The series can be described thus: cAMP production in 1321N1 cells with stable recombinant expression of human calcitonin receptor (hCTR). It counts as cell-based. To be noted: cAMP, 1321N1 cells, assay buffer with 0.1% BSA; read-out: EC50 (pM) hCTR. The method, boiled down:
(§1)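 Receptor-expressing cells (human receptors in 1321N1, rat receptors in HEK) incubated 30 min at room temperature with peptide in HBSS/HEPES pH 7.4, 0.1% BSA, 0.5 mM IBMX. cAMP read by HTRF; EC50 from 4-parameter fit as % of maximal amylin or calcitonin response.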
A general note: Changes in cAMP serve as a functional read-out for many G protein-coupled receptors.

The target in series [2] is T2, human amylin receptor (calcitonin receptor co-expressed with receptor activity modifying protein, RAMP3) (hAMYR3) (Homo sapiens, UniProt O60896+P30988).
T2 construct: expressed in transfected cells
T2 sequence (P30988 25-474): T1 sequence (P30988 25-474)
T2 sequence (O60896 24-148 partner): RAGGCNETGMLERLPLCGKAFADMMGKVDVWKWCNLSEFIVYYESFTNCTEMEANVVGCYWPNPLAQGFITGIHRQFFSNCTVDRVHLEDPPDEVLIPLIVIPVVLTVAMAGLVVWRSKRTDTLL
The series can be described thus: cAMP production in 1321N1 cells with stable recombinant expression of human amylin receptor (hAMYR3). It counts as cell-based. The following applies: for Ratio (selectivity hAMYR vs hCTR, ratio of EC50 values at the two receptors): EC50 hCTR / EC50 hAMYR3; for EC50: cAMP, 1321N1 cells, assay buffer with 0.1% BSA, read-out: EC50 (pM) hAMYR3. The method, boiled down:
as §1

The nature of series [3]: Thioflavin T fibrillation assay. It counts as physicochemical. To be noted: ThT fibrillation assay; peptide 1 mg/mL in 25 mM sodium acetate buffer pH 4.0; 6 days at 37 °C with shaking; >144 h = no increase. From the text:
Peptide aggregation that form fibrils is an indication of physical instability. Fibril formation in solution poses a significant risk for the stability of injectable peptide drug products. Thioflavin T (ThT) fibrillation assay is a useful tool to assess the aggregation kinetics of a peptide or protein under accelerated and stressed conditions that can be used to forecast the long-term viability of a compound in solution. ThT can selectively bind amyloid fibrils and the resultant complex emits strong fluorescence signal at 482 nm when excited at 450 nm (Anal Biochem. 1989 Mar;177(2):244-9). Monitoring of the change in fluorescence signal is an established method to study the fibril forming potential of peptides and proteins. ThT (purchased from Sigma Aldrich) stock solution is prepared by dissolving the ThT powder in Milli-Q water and filtered to obtain a 0.25 mM solution. The concentration of the solution is measured at 412 nm using an extinction coefficient of 36 mM^−1cm^−1. Test peptides were dissolved at 1 mg/mL in 25 mM sodium acetate buffer pH 4.0. 100 μL aliquot of peptide solution and 5 μL aliquot of ThT solution were placed in a clear bottom black fluorescence 96-well plate. 5 replicates of each test samples were placed in zo the same row of the plate. Buffer was placed in control wells for baseline correction. All empty wells were filled with water to prevent evaporation. The plate was sealed with aluminium seal and placed in fluorescence plate reader and incubated for 6 days at 37 ° C. with intermittent orbital shaking at 500 to 750 rpm. The fluorescence intensity was measured every 30 min using excitation at 444 nm and emission at 480 nm. The fibril forming potential of the test peptides was determined by measuring the average time taken to detect an increase in baseline corrected fluorescence intensity.

Numbered stars: 1 amine (or outer) side, 2 acyl side, 3 side chain; on linkers, the order of the positions; unused ones are H or OH. Bridge positions count the residues as written; N and C are the ends. Square brackets hold non-standard residues; d marks the D form. Side chains are listed from the residue outwards. Peptide text beside a SMILES is read from it. * marks the point of attachment. C18 diacid = O=C(O)CCCCCCCCCCCCCCCCC(=O)*; γGlu = O=C(O)[C@H](CCC(=O)[*:2])N[*:1]; αMeF = C[C@](N)(Cc1ccccc1)C(=O)O; Dab = NCC[C@H](N)C(=O)O; AEEA = NCCOCCOCC(=O)O

By EC50 is commonly meant the midpoint of the concentration-response curve. For the compound `CC[C@H](C)[C@H](NC(=O)[C@@H]1CCCN1C(=O)CNC(=O)[C@](C)(Cc1ccccc1)NC(=O)[C@H](CC(N)=O)NC(=O)[C@H](CC(N)=O)NC(=O)[C@H](CO)NC(=O)[C@H](CO)NC(=O)[C@H](Cc1c[nH]cn1)NC(=O)[C@H](CCCNC(=N)N)NC(=O)[C@H](CC(C)C)NC(=O)[C@H](Cc1ccccc1)NC(=O)[C@H](CC(N)=O)NC(=O)[C@H](C)NC(=O)[C@H](CC(C)C)NC(=O)[C@H](CCCNC(=N)N)NC(=O)[C@H](CCC(N)=O)NC(=O)[C@@H](NC(=O)[C@H](C)NC(=O)[C@@H]1CSSC[C@H](NC(=O)[C@@H](N)CCCCNC(=O)COCCOCCNC(=O)COCCOCCNC(=O)CC[C@H](NC(=O)CCCCCCCCCCCCCCCCC(=O)O)C(=O)O)C(=O)N[C@@H](CC(N)=O)C(=O)N[C@@H]([C@@H](C)O)C(=O)N[C@@H](C)C(=O)N[C@@H]([C@@H](C)O)C(=O)N1)[C@@H](C)O)C(=O)N[C@@H](CC(C)C)C(=O)N1CCC[C@H]1C(=O)N1CCC[C@H]1C(=O)N[C@H](C(=O)N[C@@H](CCC(=O)O)C(=O)N[C@H](C(=O)NCC(=O)N[C@@H](CO)C(=O)N[C@@H](CC(N)=O)C(=O)N[C@H](C(=O)N[C@@H](Cc1ccc(O)cc1)C(N)=O)[C@@H](C)O)C(C)C)[C@@H](C)O` [Peptide 17, K(O2Oc-O2Oc-γE-C18diacid)[CNTATC]ATQRLANFLRHSSNN(αMePhe)GPILPPTEVGSNTY-amide] (H-K([AEEA-AEEA-γGlu-C18 diacid])CNTATCATQRLANFLRHSSNN[αMeF]GPILPPTEVGSNTY-NH2; disulfide 2-7; N-terminus assumed), the EC50 in series [1] was determined as 7080 pM. For the same compound, in series [2], the “Ratio (selectivity hAMYR vs hCTR, ratio of EC50 values at the two receptors)” value is on record as 19 and the EC50 was found to be 365 pM. For the same compound, the “Time taken to detect increase in fluorescence intensity” value (from here on “Time taken to detect increase”) in series [3] is recorded as >144 h.
Consider `CC[C@H](C)[C@H](NC(=O)[C@@H]1CCCN1C(=O)CNC(=O)[C@H](Cc1ccccc1)NC(=O)[C@H](CC(N)=O)NC(=O)[C@H](CCN)NC(=O)[C@H](CO)NC(=O)[C@H](CO)NC(=O)[C@H](Cc1c[nH]cn1)NC(=O)[C@@H](NC(=O)[C@H](CC(C)C)NC(=O)[C@H](Cc1ccccc1)NC(=O)[C@H](CC(N)=O)NC(=O)[C@H](C)NC(=O)[C@H](CC(C)C)NC(=O)[C@H](CCCNC(=N)N)NC(=O)[C@H](CCC(N)=O)NC(=O)[C@@H](NC(=O)[C@H](C)NC(=O)[C@@H]1CSSC[C@H](NC(=O)[C@H](CCCCN)NC(=O)[C@@H](N)CCCCNC(=O)CC[C@H](NC(=O)CCCCCCCCCCCCCCCCC(=O)O)C(=O)O)C(=O)N[C@@H](CC(N)=O)C(=O)N[C@@H]([C@@H](C)O)C(=O)N[C@@H](C)C(=O)N[C@@H]([C@@H](C)O)C(=O)N1)[C@@H](C)O)C(C)C)C(=O)N[C@@H](CC(C)C)C(=O)N1CCC[C@H]1C(=O)N1CCC[C@H]1C(=O)N[C@H](C(=O)N[C@@H](CCC(=O)O)C(=O)N[C@H](C(=O)NCC(=O)N[C@@H](CO)C(=O)N[C@@H](CC(N)=O)C(=O)N[C@H](C(=O)N[C@@H](Cc1ccc(O)cc1)C(N)=O)[C@@H](C)O)C(C)C)[C@@H](C)O` [Peptide 28, K(γE-C18diacid)K[CNTATC]ATQRLANFLVHSS(Dab)NFGPILPPTEVGSNTY-amide] (H-K([γGlu-C18 diacid])KCNTATCATQRLANFLVHSS[Dab]NFGPILPPTEVGSNTY-NH2; disulfide 3-8; N-terminus assumed), for which the EC50 in series [1] came to 9140 pM. In series [2], the “Ratio (selectivity hAMYR vs hCTR, ratio of EC50 values at the two receptors)” value worked out at 23 and the EC50 came out at 390 pM. For the same compound, the “Time taken to detect increase” value in series [3] was determined as 45 h.
For the compound `CC[C@H](C)[C@H](NC(=O)[C@@H]1CCCN1C(=O)CNC(=O)[C@H](Cc1ccccc1)NC(=O)[C@H](CC(N)=O)NC(=O)[C@H](CC(N)=O)NC(=O)[C@H](CO)NC(=O)[C@H](CO)NC(=O)[C@H](Cc1c[nH]cn1)NC(=O)[C@@H](NC(=O)[C@H](CC(C)C)NC(=O)[C@H](Cc1ccccc1)NC(=O)[C@H](CCN)NC(=O)[C@H](C)NC(=O)[C@H](CC(C)C)NC(=O)[C@H](CCCNC(=N)N)NC(=O)[C@H](CCC(N)=O)NC(=O)[C@@H](NC(=O)[C@H](C)NC(=O)[C@@H]1CSSC[C@H](NC(=O)[C@H](CCCCN)NC(=O)[C@@H](N)CCCCNC(=O)CC[C@H](NC(=O)CCCCCCCCCCCCCCCCC(=O)O)C(=O)O)C(=O)N[C@@H](CC(N)=O)C(=O)N[C@@H]([C@@H](C)O)C(=O)N[C@@H](C)C(=O)N[C@@H]([C@@H](C)O)C(=O)N1)[C@@H](C)O)C(C)C)C(=O)N[C@@H](CC(C)C)C(=O)N1CCC[C@H]1C(=O)N1CCC[C@H]1C(=O)N[C@H](C(=O)N[C@@H](CC(N)=O)C(=O)N[C@H](C(=O)NCC(=O)N[C@@H](CO)C(=O)N[C@@H](CC(N)=O)C(=O)N[C@H](C(=O)N[C@@H](Cc1ccc(O)cc1)C(N)=O)[C@@H](C)O)C(C)C)[C@@H](C)O` [Peptide 33] (H-K([γGlu-C18 diacid])KCNTATCATQRLA[Dab]FLVHSSNNFGPILPPTNVGSNTY-NH2; disulfide 3-8; N-terminus assumed), the EC50 in series [1] turned out to be 15800 pM. For the same compound, in series [2], the “Ratio (selectivity hAMYR vs hCTR, ratio of EC50 values at the two receptors)” value turned out to be 26 and the 50% effective concentration (EC50) was 598 pM. Further, the “Time taken to detect increase” value in series [3] is >144 h.
For `CC[C@H](C)[C@H](NC(=O)[C@@H]1CCCN1C(=O)CNC(=O)[C@H](Cc1ccccc1)NC(=O)[C@H](CC(N)=O)NC(=O)[C@H](CC(N)=O)NC(=O)[C@H](CO)NC(=O)[C@H](CO)NC(=O)[C@H](Cc1c[nH]cn1)NC(=O)[C@@H](NC(=O)[C@H](CC(C)C)NC(=O)[C@H](Cc1ccccc1)NC(=O)[C@H](CC(N)=O)NC(=O)[C@H](C)NC(=O)[C@H](CC(C)C)NC(=O)[C@H](CCCNC(=N)N)NC(=O)[C@H](CCC(N)=O)NC(=O)[C@@H](NC(=O)[C@H](C)NC(=O)[C@@H]1CSSC[C@H](NC(=O)[C@@H](N)CCCCNC(=O)CC[C@H](NC(=O)CCCCCCCCCCCCCCCCC(=O)O)C(=O)O)C(=O)N[C@@H](CC(N)=O)C(=O)N[C@@H]([C@@H](C)O)C(=O)N[C@@H](C)C(=O)N[C@@H]([C@@H](C)O)C(=O)N1)[C@@H](C)O)C(C)C)C(=O)N[C@H](CC(C)C)C(=O)N1CCC[C@H]1C(=O)N1CCC[C@H]1C(=O)N[C@H](C(=O)N[C@@H](CC(N)=O)C(=O)N[C@H](C(=O)NCC(=O)N[C@@H](CO)C(=O)N[C@@H](CC(N)=O)C(=O)N[C@H](C(=O)N[C@@H](Cc1ccc(O)cc1)C(N)=O)[C@@H](C)O)C(C)C)[C@@H](C)O` [Peptide 103, K(γE-C18diacid)[CNTATC]ATQRLANFLVHSSNNFGPI(dL)PPTNVGSNTY-amide] (H-K([γGlu-C18 diacid])CNTATCATQRLANFLVHSSNNFGPI[dL]PPTNVGSNTY-NH2; disulfide 2-7; N-terminus assumed), the concentration giving a half-maximal response (EC50) in series [1] is 1880 pM. Moreover, in series [2], the “Ratio (selectivity hAMYR vs hCTR, ratio of EC50 values at the two receptors)” value is 12 and the EC50 was 161 pM. Further, in series [3], the “Time taken to detect increase” value was <5 h.

For the origin of these results see patent US20240067693A1, “POLYPEPTIDES AND USES THEREOF” (MEDIMMUNE LIMITED, priority 2020, published 2024).
